We go through 50 compounds from ChEMBL document CHEMBL1201862, “PubChem BioAssay data set” (2004).

The structures appear in SMILES notation. The source made the active and inactive calls. For most assays here, no stated cut-off is given here; in the data, actives have a measured EC50 and inactives only a lower limit. A value given as a limit tells only on which side of the number the result lay.

The nature of assay [1]: NIH3T3 cell viability loss – ATP luminescence, mouse fibroblasts, counter-screen, dose response (AID 2010).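 Further: cells exposed to compound for about 90 hours before reading.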 The assay is classed as functional, cell-based. (The purpose of a counterscreen is to sort out artefacts and off-target activity.)
Assay [2] in a line: Trypanosoma cruzi growth suppression in host cells – NIH3T3 host cells, beta-gal luminescence, confirmation (AID 2044).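 Further: intracellular parasites grown in NIH/3T3 mouse fibroblasts as host cells; luminescent beta-galactosidase reporter signal from transgenic T. cruzi replicating inside host cells; inhibitors lower the luminescence signal.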 It counts as functional, cell-based.
In a further assay the target is T1, Cytochrome P450 1A2 (Homo sapiens, UniProt P05177).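 Further: PubChem cytochrome P450 panel assay, CYP1A2 panel member.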
T1 sequence (P05177 whole entry): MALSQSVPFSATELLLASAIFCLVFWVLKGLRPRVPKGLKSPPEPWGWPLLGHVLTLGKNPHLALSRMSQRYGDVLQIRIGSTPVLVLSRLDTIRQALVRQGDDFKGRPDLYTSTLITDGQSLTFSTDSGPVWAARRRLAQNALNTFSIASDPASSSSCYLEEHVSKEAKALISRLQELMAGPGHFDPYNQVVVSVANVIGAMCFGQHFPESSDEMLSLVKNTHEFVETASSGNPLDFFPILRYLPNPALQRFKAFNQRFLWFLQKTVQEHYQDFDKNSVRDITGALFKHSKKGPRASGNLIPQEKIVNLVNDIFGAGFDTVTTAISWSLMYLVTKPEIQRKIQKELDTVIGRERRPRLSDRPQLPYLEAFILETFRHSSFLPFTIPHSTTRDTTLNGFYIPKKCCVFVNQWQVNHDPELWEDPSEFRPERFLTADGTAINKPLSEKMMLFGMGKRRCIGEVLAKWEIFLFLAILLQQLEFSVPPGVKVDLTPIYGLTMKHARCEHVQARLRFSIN

A short description of assay [3]: viability of HCT116 lacking mutant beta-catenin – cell-based, human colon tumor, dose response (AID 1045).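 Further: HCT116 colon tumor cells with beta catenin knocked out; cells exposed to compound for 60 hours.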 The assay is classed as functional.
Assay [4] can be described thus: viability of PTEN-deleted HCT116 cells – cell-based, HCT116 PTEN knockout, dose response (AID 1047).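 Further: HCT116 colon tumor cells with PTEN knocked out; cells exposed to compound for 60 hours before readout; potency for loss of cell viability measured by luminescence.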 The assay is classed as functional.
The target in assay [5] is T2, Corticotropin-releasing factor receptor 2/Corticotropin-releasing factor-binding protein (Homo sapiens, UniProt P24387+Q13324).
T2 sequence (Q13324 whole entry): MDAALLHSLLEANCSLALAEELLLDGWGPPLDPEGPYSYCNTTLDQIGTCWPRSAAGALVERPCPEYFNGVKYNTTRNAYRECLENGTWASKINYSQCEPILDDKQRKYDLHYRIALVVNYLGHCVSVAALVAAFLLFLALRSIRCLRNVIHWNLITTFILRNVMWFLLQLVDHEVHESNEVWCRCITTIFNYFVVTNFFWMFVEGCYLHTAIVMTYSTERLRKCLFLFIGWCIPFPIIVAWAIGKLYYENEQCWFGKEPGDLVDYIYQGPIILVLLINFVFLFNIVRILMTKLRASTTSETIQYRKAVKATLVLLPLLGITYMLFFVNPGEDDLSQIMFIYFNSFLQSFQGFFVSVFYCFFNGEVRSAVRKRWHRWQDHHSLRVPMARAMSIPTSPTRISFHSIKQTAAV
T2 sequence (P24387 whole entry): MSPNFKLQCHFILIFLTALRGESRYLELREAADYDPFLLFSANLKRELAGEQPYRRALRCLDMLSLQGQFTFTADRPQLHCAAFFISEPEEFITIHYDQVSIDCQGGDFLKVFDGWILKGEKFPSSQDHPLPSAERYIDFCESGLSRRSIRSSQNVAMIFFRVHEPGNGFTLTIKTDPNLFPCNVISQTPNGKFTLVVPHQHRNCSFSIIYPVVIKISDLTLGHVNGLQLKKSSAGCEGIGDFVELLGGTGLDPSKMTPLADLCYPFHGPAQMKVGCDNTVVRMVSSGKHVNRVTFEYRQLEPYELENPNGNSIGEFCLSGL
Kind of assay: activators of CRF receptor 2 with binding protein – uHTS hits, confirmation (AID 602473). The assay is classed as functional. As to conditions: read-out: EC50_Mean.

The next assay concerns the target Cytochrome P450 3A4 (Homo sapiens, UniProt P08684).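 Further: CYP3A4 tested as one member of a cytochrome P450 panel screen.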
The nature of assay [6]: viability of uninfected HEp-2 cells – cell-based, HTS, cytotoxicity control for RSV inhibitor project, dose response (AID 2410). The assay is classed as functional. As to conditions: human respiratory syncytial virus.
For another assay, the system named is Streptococcus. The assay can be described thus: GAS UMAA2166 growth inhibition – luminescence, BacTiterGlo, counter-screen for streptokinase expression inhibitor project, dose response (AID 1915).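 Further: potency for reduction of bacterial viability or growth.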 The assay is classed as functional, organism-based.
For assay [7], the system named is Streptococcus sp. 'group A'. Kind of assay: Streptococcus pyogenes SK(-)GAS viability under kanamycin – luminescence, BacTiterGlo, confirmation, counter-screen for streptokinase expression inhibitor project, dose response (AID 1900). The assay is classed as functional, organism-based.
Assay [8] in a line: Luminescence Cell-Based Dose Response HTS to Identify Activators of Luciferase Translation or Activity in H4 […] Cells. [Related pubchem assays: 1829 (Project Summary), 1814 (Primary HTS)]. It counts as functional.
Another assay has as its system H4. The assay can be described thus: Luminescence Cell-Based Dose Response HTS to Identify Activators of 5'UTR Stem-Loop Driven Prion Protein mRNA Translation in H4 Neuroglioblastoma Cells. [Related pubchem assays: 1829 (Project Summary), 1814 (Primary HTS)]. It counts as functional. Particulars: Homo sapiens.

Sequence of Cytochrome P450 3A4 (P08684 whole entry): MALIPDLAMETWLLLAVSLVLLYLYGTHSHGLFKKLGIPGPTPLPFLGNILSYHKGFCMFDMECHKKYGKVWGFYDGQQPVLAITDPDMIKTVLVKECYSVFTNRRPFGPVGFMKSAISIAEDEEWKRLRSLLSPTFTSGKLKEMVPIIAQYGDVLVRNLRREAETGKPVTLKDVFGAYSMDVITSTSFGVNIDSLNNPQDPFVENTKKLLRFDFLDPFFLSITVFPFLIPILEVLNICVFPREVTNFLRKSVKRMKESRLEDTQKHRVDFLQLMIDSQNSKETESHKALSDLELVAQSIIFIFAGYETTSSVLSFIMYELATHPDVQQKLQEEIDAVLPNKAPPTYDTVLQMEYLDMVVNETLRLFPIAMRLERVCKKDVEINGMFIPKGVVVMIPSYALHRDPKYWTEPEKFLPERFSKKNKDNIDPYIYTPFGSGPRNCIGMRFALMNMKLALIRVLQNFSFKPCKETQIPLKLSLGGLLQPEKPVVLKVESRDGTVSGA

In the case of `N#CC1=C(N)Oc2c(c(=O)sc3ccccc23)C1c1cccnc1` (centres undefined), the EC50 was 8.85 µM (active) in assay [1] and 0.536 µM (active) in assay [2].
`C[C@@H](C(=O)Nc1ccc2ccccc2c1)[C@H]1C[C@]1(C)[C@H](NS(=O)(=O)c1ccc(-c2ccccc2)cc1)c1ccccc1`: on Cytochrome P450 1A2, the AC50 (commonly the concentration at which the activity in the assay is half-maximal) is 15.8 µM (inconclusive).
For `S=C(NC1CCCCC1)N1CCn2cccc2C1c1cccnc1` (centres undefined), the EC50 in assay [1] was > 60 µM (not active); in [2], 0.379 µM (active).
Take `COC(=O)c1sccc1NC(=O)/C=C/c1ccc(Cl)cc1Cl`: the EC50 was 51.4 µM (active) in assay [3] and 13.8 µM (active) in assay [4].
In the case of `COc1ccc2[nH]cc(C(=O)CN3CCCCC3)c2c1`, the EC50 in assay [5] was > 53 µM (inactive).
Regarding `Cc1c(/C=N\NC(=O)C2COc3ccc(C(C)(C)C)cc3O2)c2ccccc2n1C` (centres undefined), the EC50 in assay [1] was > 60 µM (not active); in assay [2], 2.25 µM (active).
On to `Cc1ccc(NC(=O)N(Cc2ccco2)Cc2cc3cc(C)cc(C)c3nc2Cl)cc1`, for which the EC50 in assay [1] was > 30 µM (not active); in assay [2], 2.78 µM (active).
In the same order, the values of `O=[N+]([O-])c1cc([N+](=O)[O-])c2[nH]nc(-c3ccccc3)c2c1` are > 60 µM (not active) and 1.47 µM (active).
On to `COc1ccc(-n2c(=O)c(-c3ccc(F)cc3)nc3cnc(OC)nc32)cc1`, for which the AC50 at Cytochrome P450 3A4 is 15.8 µM (inconclusive).
For `Cc1cc(O)n2nc(Nc3cccc(Cl)c3)nc2n1`, the EC50 in assay [5] is > 53 µM (inactive).
With `O=C(CCCN1C(=O)/C(=C/c2ccccc2Cl)SC1=S)N1CCCC1`, in [6], the cytotoxic concentration (CC50) – broadly, the concentration at which the toxic effect on the cells reaches its halfway point – is 15.5 µM (active).
`COc1ccc(-c2nc3cnc(N(C)C)nc3n(C[C@H]3CCCO3)c2=O)cc1`: the AC50 at Cytochrome P450 3A4 is 6.31 µM (inconclusive).
`CCc1cccc2cc3c(N)c(C(=O)Nc4ccc(S(=O)(=O)N5CCCC5)cc4)sc3nc12`: the CC50 in assay [6] is 38 µM (active).
As to `COc1cc(/C=C(\C#N)c2nc3ccccc3s2)ccc1OCC(=O)Nc1ccccc1`, the EC50 in assay [3] was 560 µM (active); in assay [4], 25.2 µM (active).
Take `O=C(NCCNc1ccc([N+](=O)[O-])cc1)c1ccccc1Br`: the AC50 at Cytochrome P450 3A4 was 28.2 µM (inconclusive).
On to `O=C(c1ccc(COc2ccccc2Cl)o1)N1CCN(c2ccccc2)CC1`, for which the CC50 in [6] is 13.4 µM (active).
On to `O=C(O)c1[nH]c2c([N+](=O)[O-])cc([N+](=O)[O-])cc2c1C(=O)O`, for which the AC50 on Cytochrome P450 1A2 was 0.126 µM (inconclusive).
Consider `Nc1nc2nc(-c3ccccc3)cc(C(F)(F)F)c2s1`, for which, in assay [6], the CC50 was 35.5 µM (active).
For `Cc1ncc(C/N=C\c2ccc(Cl)cc2)c(N)n1`, the AC50 on Cytochrome P450 1A2 is 5.01 µM (inconclusive).
On to `COc1ccc(-c2oc(/N=C/N3CCCC3)c(C#N)c2-c2ccc(OC)cc2)cc1`, for which the EC50 was > 60 µM (not active) in [1] and 1.75 µM (active) in assay [2].
For the compound `CSCCC(NC(=O)c1ccco1)C(=O)OCc1cc([N+](=O)[O-])cc2c1OCOC2` (centres undefined), the EC50 in assay [5] was 6.29 µM (active).
`Cc1c(NC(=O)c2cc3c(s2)-c2ccccc2OC3)cccc1[N+](=O)[O-]`: the CC50 in assay [6] is 6.43 µM (active).
Consider `Cc1cccc(Nc2nc(N3CCOCC3)nc(N3CCOCC3)n2)c1`, for which the EC50 was 5.8 µM (active) in assay [1] and 0.465 µM (active) in [2].
Turning to `Oc1nc(-c2ccccc2)n(-c2ccc(Cl)cc2)n1`, the EC50 in assay [5] was > 53 µM (inactive).
`COc1cccc(-c2nnc(Nc3nc4c(F)cccc4s3)o2)c1`: the EC50 in the assay with Streptococcus is 26.2 µM (active); in assay [7], 0.767 µM (active).
On to `CC(C)(C)C(=O)Cn1c(=N)n(Cc2ccccc2Cl)c2ccccc21`, for which the figures for the EC50 in [1] and in assay [2] were > 60 µM (not active) and 2.39 µM (active), respectively.
For the compound `C[C@@H](C1=C(CCN(C)C)Cc2ccccc21)c1ccccn1`, the concentration at half-maximal activity (AC50) at Cytochrome P450 1A2 was 20 µM (inconclusive).
For `CN1CCN(c2ccc(-c3ccnn3C(=O)Nc3cccc(C(F)(F)F)c3)cc2)CC1`, the EC50 in assay [8] is 3.08 µM (active); in the assay on H4, 5.98 µM (active).
Turning to `NS(=O)(=O)c1ccc(/N=N\c2nc3c(S)ncnc3[nH]2)cc1`, on Cytochrome P450 1A2, the AC50 is 6.31 µM (inconclusive).
As to `CN1/C(=C\C=C(/C#N)C(=O)Nc2ccccc2F)C(C)(C)c2ccccc21`, the EC50 in assay [5] is 5.05 µM (active).
Same read-out and setting: the figure for `O=c1[nH]c(=O)n(-c2ccccc2)c2c1C(C(F)(F)F)(C(F)(F)F)NC(CCC1CCCCC1)=N2` is 7.07 µM (active).
With `COc1ccc(Cl)cc1NC(=O)CSc1nnc(Cc2cccn2C)n1-c1ccc(F)cc1`, the EC50 in [3] is 72.9 µM (active); in [4], 80.8 µM (active).
With `COc1ccccc1OCCCn1cc(C=O)c2ccccc21`, the CC50 in assay [6] was 8.95 µM (active).
Consider `COc1ccc2c(c1)OC[C@H]1[C@H]2N2C(=O)CN(Cc3ccc(F)cc3)C(=O)[C@@]2(C)[C@H]1c1ccccc1`, for which the CC50 in assay [6] was 16.4 µM (active).
As for `CCn1cc(C(=O)NCc2ccc3c(c2)OCO3)c(=O)c2cc(F)c(N3CCN(C)CC3)cc21`, the EC50 in [1] was > 60 µM (not active); in [2] it was 1.16 µM (active).
Take `Cc1cccc(N2CCN(c3nc4ccc(Cl)cc4n4cnnc34)CC2)c1C`: the EC50 in assay [3] was 20 µM (active); in assay [4], 19.1 µM (active).
On to `O=C(Nc1ccc(Cl)cc1)N1CCCN(Cc2ccc(F)cc2)C1`, for which the EC50 in assay [3] is 16.4 µM (active); in assay [4] it was 17.2 µM (active).
With `CCSc1nnc2nc3c(c(O)n12)C1(CCCC1)Cc1ccccc1-3`, the EC50 (with Streptococcus; in [7]) was 8.43 µM (active) throughout.
Regarding `COc1ccc(CCNC(=O)COc2ccc(S(=O)(=O)NC3CCCCC3)cc2Cl)cc1`, on Cytochrome P450 1A2, the AC50 is 25.1 µM (inconclusive).
As to `O=C(Nc1ccc2nn(-c3ccccc3)nc2c1)c1cccnc1`, the 50% cytotoxic concentration (CC50) in assay [6] is > 50 µM (active).
Consider `CCOc1ccc(CN2CCN(Cc3nc(C(C)C)cs3)CC2CCO)cc1` (centres undefined), for which the EC50 in assay [1] is > 60 µM (not active); in assay [2] it was 0.845 µM (active).
On to `O=C(Nc1ccc(N2CCN(C(=O)c3ccc(Cl)cc3)CC2)cc1)c1ccc(Br)o1`, for which the EC50 in [1] was > 60 µM (not active); in [2], 4.09 µM (active).
In the same order, the values of `CN(C)CCCNc1c2c(nc3cc(-c4cccc(F)c4)nn13)CCC2` are > 60 µM (not active) and 0.181 µM (active).
For `Cc1nc2nc(-c3ccccc3)nn2c(C)c1C`, in assay [6], the CC50 is 39.4 µM (active).
Still for that read-out and setting: under `CCOc1ccccc1C(=O)Nc1cccc2cccnc12` stands 30.4 µM (active).
Turning to `COc1ccc(/C=N\NC(=O)O)cc1`, at Cytochrome P450 1A2, the AC50 was 0.501 µM (inconclusive).
In the case of `CCCn1c(C(C)Nc2nc(-c3ccc(C)cc3)cs2)nc2ccccc21` (centres undefined), the CC50 in assay [6] is 15.2 µM (active).
On to `N=c1c2c(-c3ccccc3)c(-c3ccccc3)n(Cc3ccco3)c2ncn1CCN1CCOCC1`, for which the EC50 in [3] was 8.19 µM (active); in assay [1], > 60 µM (not active); in [4], 7.92 µM (active); in [2] it was 1.53 µM (active).
Consider `FC(F)(F)c1ccc2c(c1)nc(S)n2C1CC1`, for which the CC50 in assay [6] is 34.1 µM (active).
Take `COc1ccccc1NS(=O)(=O)c1cc(NC(=O)c2cccs2)ccc1N1CCCCC1`: the EC50 was > 30 µM (not active) in [1] and 1.23 µM (active) in assay [2].
